Reference: PubChem BioAssay AID248 (DTP/NCI, 2004)
Where “and” joins values, the source holds several entries; their conditions need not be identical. Equal entries are not always repeated. Inconclusive results and toxic doses are left out.

Test system: L1210 leukemia ip in BDF1 mice, survival T/C
Assay: NCI In Vivo Anticancer Drug Screen. Data for tumor model L1210 Leukemia (intraperitoneal) in B6D2F1 (BDF1) mice
Details: higher = longer survival
How it was run: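 Transplantable tumor model; survival measured in treated vs vehicle control mice. Value = treated/control.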

[1] = endpoint: mean survival time, dose: 100.0 mg/kg/injection, schedule: Q01DX001 (ip), vehicle: saline
[2] = endpoint: mean survival time, dose: 200.0 mg/kg/injection, schedule: Q01DX001 (ip), vehicle: saline
[3] = endpoint: mean survival time, dose: 100.0 mg/kg/injection, schedule: Q04DX003 (ip), vehicle: Klucel (hydroxypropylcellulose) (HPC)
[4] = endpoint: mean survival time, dose: 200.0 mg/kg/injection, schedule: Q04DX003 (ip), vehicle: Klucel (hydroxypropylcellulose) (HPC)
[5] = endpoint: mean survival time, dose: 400.0 mg/kg/injection, schedule: Q04DX003 (ip), vehicle: Klucel (hydroxypropylcellulose) (HPC)
[6] = endpoint: mean survival time, dose: 100.0 mg/kg/injection, schedule: Q01DX001 (ip), vehicle: saline with Tween-80
[7] = endpoint: mean survival time, dose: 100.0 mg/kg/injection, schedule: Q01DX009 (ip), vehicle: saline with Tween-80
[8] = endpoint: mean survival time, dose: 100.0 mg/kg/injection, schedule: Q04DX002 (ip), vehicle: saline with Tween-80
[9] = endpoint: mean survival time, dose: 200.0 mg/kg/injection, schedule: Q01DX001 (ip), vehicle: saline with Tween-80
[10] = endpoint: mean survival time, dose: 200.0 mg/kg/injection, schedule: Q01DX009 (ip), vehicle: saline with Tween-80
[11] = endpoint: mean survival time, dose: 200.0 mg/kg/injection, schedule: Q04DX002 (ip), vehicle: saline with Tween-80
[12] = endpoint: mean survival time, dose: 400.0 mg/kg/injection, schedule: Q01DX001 (ip), vehicle: saline with Tween-80
[13] = endpoint: mean survival time, dose: 400.0 mg/kg/injection, schedule: Q04DX002 (ip), vehicle: saline with Tween-80

SMILES: Nc1nc(N)c(N=Nc2ccc(C(=O)O)cc2)c(=O)[nH]1
- T/C [1]: 105 % of control
- T/C [2]: 106 % of control

SMILES: Cn1nc(NN)c2cccnc21
- T/C (endpoint: mean survival time, dose: 75.0 mg/kg/injection, schedule: Q01DX001 (ip), vehicle: other): 103 % of control
- T/C (endpoint: mean survival time, dose: 150.0 mg/kg/injection, schedule: Q01DX001 (ip), vehicle: other): 104 % of control

SMILES: COc1cc2c(cc1O)C(=O)CCCC2
- T/C (endpoint: mean survival time, dose: 100.0 mg/kg/injection, schedule: Q01DX009 (ip), vehicle: saline sonified): 94 % of control
- T/C [3]: 94 % of control
- T/C (endpoint: mean survival time, dose: 200.0 mg/kg/injection, schedule: Q01DX009 (ip), vehicle: saline sonified): 103 % of control
- T/C [4]: 92 % of control
- T/C (endpoint: mean survival time, dose: 400.0 mg/kg/injection, schedule: Q01DX009 (ip), vehicle: saline sonified): 90 % of control
- T/C [5]: 100 % of control

SMILES: COc1ccc(C(=O)NC2C(OC(C)=O)OC(COC(C)=O)C(OC(C)=O)C2OC(C)=O)cc1 (stereo unspecified)
- T/C [1]: 98 % of control and 101 % of control
- T/C [2]: 96 % of control and 106 % of control
- T/C (endpoint: mean survival time, dose: 400.0 mg/kg/injection, schedule: Q01DX001 (ip), vehicle: saline): 90 % of control and 89 % of control

SMILES: COc1ccc(OC)c(NC(=O)c2ccc(Cl)cc2)c1
- T/C [6]: 101 % of control
- T/C [7]: 97 % of control
- T/C [8]: 104 % of control and 110 % of control
- T/C (endpoint: mean survival time, dose: 100.0 mg/kg/injection, schedule: Q04DX003 (ip), vehicle: saline with Tween-80): 94 % of control
- T/C [9]: 97 % of control
- T/C [10]: 95 % of control and 97 % of control
- T/C [11]: 104 % of control and 92 % of control
- T/C (endpoint: mean survival time, dose: 200.0 mg/kg/injection, schedule: Q04DX003 (ip), vehicle: saline with Tween-80): 97 % of control
- T/C [12]: 95 % of control
- T/C (endpoint: mean survival time, dose: 400.0 mg/kg/injection, schedule: Q01DX009 (ip), vehicle: saline with Tween-80): 102 % of control and 124 % of control
- T/C [13]: 94 % of control and 108 % of control
- T/C (endpoint: mean survival time, dose: 400.0 mg/kg/injection, schedule: Q04DX003 (ip), vehicle: saline with Tween-80): 95 % of control

SMILES: ClCc1ccc(OCc2ccccc2)c(OCc2ccccc2)c1
- T/C (endpoint: mean survival time, dose: 100.0 mg/kg/injection, schedule: Q04DX003 (ip), vehicle: water): 104 % of control
- T/C (endpoint: mean survival time, dose: 200.0 mg/kg/injection, schedule: Q04DX003 (ip), vehicle: water): 100 % of control
- T/C (endpoint: mean survival time, dose: 400.0 mg/kg/injection, schedule: Q04DX003 (ip), vehicle: water): 102 % of control

SMILES: CCCCOC(=O)c1[nH]cnc1/N=N\N(C)C
- T/C (endpoint: mean survival time, dose: 10.0 mg/kg/injection, schedule: Q01DX009 (ip), vehicle: carboxymethylcellulose (CMC)): 100 % of control
- T/C (endpoint: mean survival time, dose: 18.0 mg/kg/injection, schedule: Q01DX001 (ip), vehicle: other): 98 % of control
- T/C (endpoint: mean survival time, dose: 20.0 mg/kg/injection, schedule: Q01DX009 (ip), vehicle: carboxymethylcellulose (CMC)): 109 % of control
- T/C (endpoint: mean survival time, dose: 28.0 mg/kg/injection, schedule: Q01DX001 (ip), vehicle: other): 93 % of control
- T/C (endpoint: mean survival time, dose: 40.0 mg/kg/injection, schedule: Q01DX009 (ip), vehicle: carboxymethylcellulose (CMC)): 114 % of control
- T/C (endpoint: mean survival time, dose: 42.0 mg/kg/injection, schedule: Q01DX001 (ip), vehicle: other): 100 % of control
- T/C (endpoint: mean survival time, dose: 63.0 mg/kg/injection, schedule: Q01DX001 (ip), vehicle: other): 102 % of control
- T/C (endpoint: mean survival time, dose: 72.0 mg/kg/injection, schedule: Q01DX015 (ip), vehicle: other): 110 % of control
- T/C (endpoint: mean survival time, dose: 100.0 mg/kg/injection, schedule: Q01DX001 (ip), vehicle: other): 111 % of control
- T/C (endpoint: mean survival time, dose: 120.0 mg/kg/injection, schedule: Q01DX015 (ip), vehicle: other): 101 % of control

SMILES: O=C1Nc2ccccc2/C1=C/c1cccnc1
- T/C (endpoint: mean survival time, dose: 50.0 mg/kg/injection, schedule: Q01DX Z (ip), vehicle: carboxymethylcellulose (CMC)): 97 % of control
- T/C (endpoint: mean survival time, dose: 100.0 mg/kg/injection, schedule: Q01DX Z (ip), vehicle: carboxymethylcellulose (CMC)): 111 % of control
- T/C (endpoint: mean survival time, dose: 200.0 mg/kg/injection, schedule: Q01DX Z (ip), vehicle: carboxymethylcellulose (CMC)): 94 % of control
- T/C (endpoint: mean survival time, dose: 400.0 mg/kg/injection, schedule: Q01DX Z (ip), vehicle: carboxymethylcellulose (CMC)): 95 % of control

SMILES: CC(C)=NOCCCCON=C(C)C
- T/C [6]: 101 % of control
- T/C [8]: 95 % of control and 103 % of control
- T/C [9]: 100 % of control
- T/C [11]: 109 % of control and 88 % of control
- T/C [12]: 92 % of control
- T/C [13]: 103 % of control and 88 % of control

SMILES: Cc1ccc(C(=O)Nc2ncn(C3CC(O)C(CO)O3)c(=O)n2)cc1 (stereo unspecified)
- T/C (endpoint: mean survival time, dose: 6.25 mg/kg/injection, schedule: Q04DX003 (ip), vehicle: saline with Tween-80): 114 % of control
- T/C (endpoint: mean survival time, dose: 12.5 mg/kg/injection, schedule: Q01DX003 (ip), vehicle: saline with Tween-80): 245 % of control
- T/C (endpoint: mean survival time, dose: 12.5 mg/kg/injection, schedule: Q01DX005 (ip), vehicle: saline): 187 % of control
- T/C (endpoint: mean survival time, dose: 12.5 mg/kg/injection, schedule: Q04DX003 (ip), vehicle: saline with Tween-80): 172 % of control
- T/C (endpoint: mean survival time, dose: 25.0 mg/kg/injection, schedule: Q01DX003 (ip), vehicle: saline with Tween-80): 152 % of control
- T/C (endpoint: mean survival time, dose: 25.0 mg/kg/injection, schedule: Q04DX003 (ip), vehicle: saline with Tween-80): 156 % of control and 185 % of control
- T/C (endpoint: mean survival time, dose: 50.0 mg/kg/injection, schedule: Q01DX003 (ip), vehicle: saline with Tween-80): 111 % of control
- T/C (endpoint: mean survival time, dose: 50.0 mg/kg/injection, schedule: Q01DX005 (ip), vehicle: saline): 90 % of control

SMILES: CC1=C2[C@H]3OC(=O)[C@@H](C)[C@@H]3CC[C@@]2(C)C=C/C1=N\O
- T/C [1]: 101 % of control
- T/C [2]: 98 % of control

SMILES: CCOCC(=O)CC1CCCC1
- T/C (endpoint: mean survival time, dose: 50.0 mg/kg/injection, schedule: Q01DX009 (ip), vehicle: saline with Tween-80): 103 % of control
- T/C [7]: 100 % of control
- T/C [10]: 95 % of control

SMILES: CCOC(=O)c1ccc(N=[N+]([O-])c2ccc(C(=O)OCC)cc2)cc1
- T/C (endpoint: mean survival time, dose: 100.0 mg/kg/injection, schedule: Q04DX002 (ip), vehicle: Klucel (hydroxypropylcellulose) (HPC)): 96 % of control
- T/C (endpoint: mean survival time, dose: 200.0 mg/kg/injection, schedule: Q04DX002 (ip), vehicle: Klucel (hydroxypropylcellulose) (HPC)): 96 % of control
- T/C (endpoint: mean survival time, dose: 400.0 mg/kg/injection, schedule: Q04DX002 (ip), vehicle: Klucel (hydroxypropylcellulose) (HPC)): 100 % of control

SMILES: CC(=O)Nc1c(C)cc(C)cc1C
- T/C (endpoint: mean survival time, dose: 50.0 mg/kg/injection, schedule: Q01DX009 (ip), vehicle: Klucel (hydroxypropylcellulose) (HPC)): 105 % of control
- T/C (endpoint: mean survival time, dose: 100.0 mg/kg/injection, schedule: Q01DX009 (ip), vehicle: Klucel (hydroxypropylcellulose) (HPC)): 106 % of control
- T/C [3]: 96 % of control
- T/C (endpoint: mean survival time, dose: 200.0 mg/kg/injection, schedule: Q01DX009 (ip), vehicle: Klucel (hydroxypropylcellulose) (HPC)): 103 % of control
- T/C [4]: 102 % of control
- T/C (endpoint: mean survival time, dose: 400.0 mg/kg/injection, schedule: Q01DX009 (ip), vehicle: Klucel (hydroxypropylcellulose) (HPC)): 103 % of control
- T/C [5]: 104 % of control

SMILES: CCCC(=O)Nc1ncnc2c1ncn2C1OC2COP(=O)(O)OC2C1OC(=O)CCC (stereo unspecified)
- T/C (endpoint: mean survival time, dose: 12.5 mg/kg/injection, schedule: Q01DX009 (ip), vehicle: saline): 105 % of control
- T/C (endpoint: mean survival time, dose: 25.0 mg/kg/injection, schedule: Q01DX009 (ip), vehicle: saline): 104 % of control
- T/C (endpoint: mean survival time, dose: 50.0 mg/kg/injection, schedule: Q01DX009 (ip), vehicle: saline): 102 % of control
- T/C (endpoint: mean survival time, dose: 100.0 mg/kg/injection, schedule: Q01DX009 (ip), vehicle: saline): 102 % of control
- T/C (endpoint: mean survival time, dose: 200.0 mg/kg/injection, schedule: Q01DX009 (ip), vehicle: saline): 100 % of control
- T/C (endpoint: mean survival time, dose: 400.0 mg/kg/injection, schedule: Q01DX009 (ip), vehicle: saline): 104 % of control
- T/C (endpoint: median survival time, dose: 25.0 mg/kg/injection, schedule: Q01DX009 (ip), vehicle: saline): 100 % of control
- T/C (endpoint: median survival time, dose: 50.0 mg/kg/injection, schedule: Q01DX001 (ip), vehicle: saline): 100 % of control
- T/C (endpoint: median survival time, dose: 50.0 mg/kg/injection, schedule: Q01DX009 (ip), vehicle: saline): 100 % of control
- T/C (endpoint: median survival time, dose: 100.0 mg/kg/injection, schedule: Q01DX001 (ip), vehicle: saline): 100 % of control
- T/C (endpoint: median survival time, dose: 100.0 mg/kg/injection, schedule: Q01DX009 (ip), vehicle: saline): 100 % of control
- T/C (endpoint: median survival time, dose: 200.0 mg/kg/injection, schedule: Q01DX001 (ip), vehicle: saline): 100 % of control
- T/C (endpoint: median survival time, dose: 200.0 mg/kg/injection, schedule: Q01DX009 (ip), vehicle: saline): 100 % of control
- T/C (endpoint: median survival time, dose: 400.0 mg/kg/injection, schedule: Q01DX001 (ip), vehicle: saline): 100 % of control
- T/C (endpoint: median survival time, dose: 400.0 mg/kg/injection, schedule: Q01DX009 (ip), vehicle: saline): 100 % of control
